# Reference: paper PMC12141336, “A dual inhibitor of TrxR1 and XIAP induces pyroptosis in melanoma” (Frontiers in Cell and Developmental Biology, 2025)
# Tests used:
# [1] = target: T1, TrxR1 (thioredoxin reductase 1) (Rattus norvegicus, UniProt O89049); test: fluorescence quenching (Stern-Volmer) with GST as control; also DTNB assay on recombinant TrxR1, IC50 […]; assay type: binding
# T1 construct: gene Txnrd1
# T1 sequence (O89049 1-499): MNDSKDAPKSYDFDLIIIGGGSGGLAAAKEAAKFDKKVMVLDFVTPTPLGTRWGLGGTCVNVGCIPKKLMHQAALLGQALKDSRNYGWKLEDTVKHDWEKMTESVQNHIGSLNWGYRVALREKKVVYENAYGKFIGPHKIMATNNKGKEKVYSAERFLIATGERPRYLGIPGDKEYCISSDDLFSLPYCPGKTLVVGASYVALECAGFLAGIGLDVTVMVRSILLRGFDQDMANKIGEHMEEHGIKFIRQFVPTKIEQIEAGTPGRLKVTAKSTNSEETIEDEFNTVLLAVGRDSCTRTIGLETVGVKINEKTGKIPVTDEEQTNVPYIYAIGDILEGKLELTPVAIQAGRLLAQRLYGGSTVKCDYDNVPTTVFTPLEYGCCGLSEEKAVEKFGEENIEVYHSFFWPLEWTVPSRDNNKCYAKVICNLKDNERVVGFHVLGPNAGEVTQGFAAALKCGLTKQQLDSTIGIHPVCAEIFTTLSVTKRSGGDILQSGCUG
# [2] = target: T1, TrxR1 (thioredoxin reductase 1); test: DTNB assay on purified recombinant TrxR1, […] h incubation
SMILES,Kd [1] [nM],IC50 [2] [nM]
CC(=O)CC#[C][Au][P](c1ccccc1)(c1ccccc1)C1CCCCC1 [TRI-03],310 ± 50,
CC[P](CC)(CC)=[Au][S][C@@H]1O[C@H](COC(C)=O)[C@@H](OC(C)=O)[C@H](OC(C)=O)[C@H]1OC(C)=O [auranofin],,1470 ± 30
